Reference: paper PMC7108740, “Exploring the molecular structures that confer ligand selectivity for galanin type II and III receptors” (PLoS ONE, 2020)
Residue numbers refer to the chain shown, from its start. Ends that are not written are not given here.

Tests used:
[1] = target: T1, GALR3 triple mutant L^100F, Y^103F, Y^107H (Homo sapiens, UniProt O60755, L100F/Y103F/Y107H); assay: SRE-luc luciferase assay, GALR3 L100F,Y103F,Y107H; format: cell-based; details: GALR3 L^100F, SRE-luc in HEK293 Gqi cells, ligand 6 h, mean ± S.E., SEM
T1 construct: expressed in transfected cells; host or cells: HEK293 cells stably expressing Gqi
T1 sequence (O60755 1-368 L100F/Y103F/Y107H): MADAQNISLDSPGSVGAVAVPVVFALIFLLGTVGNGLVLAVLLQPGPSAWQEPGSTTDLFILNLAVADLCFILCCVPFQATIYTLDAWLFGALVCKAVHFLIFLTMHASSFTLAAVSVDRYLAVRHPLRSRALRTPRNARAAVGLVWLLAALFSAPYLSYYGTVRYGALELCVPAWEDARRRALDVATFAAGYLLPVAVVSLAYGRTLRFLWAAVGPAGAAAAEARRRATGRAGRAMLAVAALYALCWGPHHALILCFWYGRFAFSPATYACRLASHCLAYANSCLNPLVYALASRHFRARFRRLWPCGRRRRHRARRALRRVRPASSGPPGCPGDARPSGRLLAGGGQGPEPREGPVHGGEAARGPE
Source text: (§1) For domain swapping between GALR2 and GALR3, individual cDNA fragments of interest were amplified by polymerase chain reaction (PCR) with Pfu polymerase (ELPIS Biotech, Daejeon, Korea) and two specific primers, one corresponding to the 5' or 3' end of the GALR2 or GALR3 cDNA and the other to the region of overlap between the two receptors. The two resulting fragments, one from GALR2 and the other from GALR3, were subjected to a second round of PCR to generate the chimeric cDNAs. To construct single, double-, triple-, pentuple-, hextuple-, and septuple-mutant receptors, amino acids of GALR3 were substituted for the amino acids at the corresponding positions in GALR2 using PCR-based site-directed mutagenesis. All of the chimeric constructs were cloned into the pcDNA3 expression vector at HindⅢ and XbaⅠ sites. The DNA sequences of the chimeras were verified by automatic sequencing. HEK293 cells stably expressing the Gqi construct, which allows induction of Gq-dependent signaling pathways upon activation of a Gi-coupled receptor [14, 30], were maintained in Dulbecco's Modified Eagle's Medium (DMEM) in the presence of 10% fetal bovine serum and 1% penicillin and streptomycin. For all transfections, 200 ng DNA (100 ng receptor and 100 ng SRE-luc) mixed with lipofectamine 2000 was applied to 60–80% confluent cells on a multi-well plate according to the manufacturer's instructions (Invitrogen, Carlsbad, CA). For luciferase assays, HEK293 Gqi cells were seeded on 48-well plates at a density of 2.5 × 10^4 cells/well one day before transfection. […] The luciferase activity in 50 μl cell extract was determined using a luciferase assay system according to the standard protocol for the Synergy 2 Multi-Mode Microplate Reader (BioTek, Winooski, VT, USA). […] The concentrations of agonists that induced half-maximal stimulation (EC50) were calculated using the GraphPad PRISM5 software (GraphPad software, Inc., San Diego, CA). […]

[2] = target: T2, GALR3 double mutant L^100F, Y^103F (Homo sapiens, UniProt O60755, L100F/Y103F); assay: SRE-luc luciferase assay, GALR3 L100F,Y103F; format: cell-based; details: GALR3 L^100F, SRE-luc in HEK293 Gqi cells, ligand 6 h, mean ± S.E., SEM
T2 construct: expressed in transfected cells; host or cells: HEK293 cells stably expressing Gqi
T2 sequence (O60755 1-368 L100F/Y103F): T1 sequence (O60755 1-368 L100F/Y103F/Y107H) with H107Y
Source text: as §1

Row | EC50 [1] | EC50 [2] | Molecule
1 | 83.2 ± 26.9 nM | 174 ± 45 nM | NWTPNAMLYLKGAQ-NH2 [N^5-SPX]
2 | 30.9 ± 9.03 nM | 42.7 ± 9.54 nM | CSCC[C@H](NC(=O)[C@H](C)NC(=O)[C@H](CCC(N)=O)NC(=O)[C@@H]1CCCN1C(=O)[C@@H](NC(=O)[C@H](Cc1c[nH]c2ccccc12)NC(=O)[C@@H](N)CC(N)=O)[C@@H](C)O)C(=O)N[C@@H](CC(C)C)C(=O)N[C@@H](Cc1ccc(O)cc1)C(=O)N[C@@H](CC(C)C)C(=O)N[C@@H](CCCCN)C(=O)NCC(=O)N[C@@H](C)C(=O)N[C@@H](CCC(N)=O)C(N)=O [SPX, reference compound]
3 | 64.6 ± 12.1 nM | 155 ± 45.2 nM | NWTPQAALYLKGAQ-NH2 [A^7-SPX]
